Measured values taken from BigSolDB 2.1.

NC(CO)(CO)CO
solubility (mole fraction)
Conditions | 293.2 K | 298.2 K | 303.2 K | 308.2 K | 313.2 K
in n-propanol | 0.0038 | 0.005 | 0.0063 | 0.0072 | 0.0088
in water | 0.0831 | 0.092 | 0.101 | 0.11 | 0.123
